Experimental data from paper PMC4376459, “CXCR3 antagonist VUF10085 binds to an intrahelical site distinct from that of the broad spectrum antagonist TAK-779” (British Journal of Pharmacology, 2015).
Residue numbers refer to the chain shown, from its start.

Tests used:
[1] = biological target: T1, CXCR3 Y60A (Homo sapiens, UniProt P49682, Y60A); assay: Whole-cell 125I-CXCL11 binding assay, L1.2 transfectants
T1 construct: expressed in transfected cells; host or cells: murine pre-B cell line L1.2, transient transfection
T1 sequence (P49682 1-368 Y60A): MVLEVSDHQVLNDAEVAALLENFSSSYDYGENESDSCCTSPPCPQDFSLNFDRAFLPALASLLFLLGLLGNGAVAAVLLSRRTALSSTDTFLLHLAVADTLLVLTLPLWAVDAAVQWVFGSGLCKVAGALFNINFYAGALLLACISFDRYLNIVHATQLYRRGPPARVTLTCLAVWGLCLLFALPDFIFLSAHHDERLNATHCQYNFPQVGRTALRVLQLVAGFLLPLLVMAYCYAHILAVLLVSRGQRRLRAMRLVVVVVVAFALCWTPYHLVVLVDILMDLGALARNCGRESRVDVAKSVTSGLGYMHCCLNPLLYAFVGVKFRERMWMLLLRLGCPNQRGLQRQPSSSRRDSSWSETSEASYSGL

[2] = biological target: T2, D112N-CXCR3 (Homo sapiens, UniProt P49682, D112N); assay: Chemotaxis assay, L1.2 transfectants migrating to CXCL11; assay type: cell-based; conditions: 10 nM CXCL11, read-out: IC50 for inhibition of migration
T2 construct: expressed in transfected cells; host or cells: murine pre-B cell line L1.2, transient transfection
T2 sequence (P49682 1-368 D112N): T1 sequence (P49682 1-368 Y60A) with A60Y, D112N

[3] = biological target: T3, CXCR3 V275A (Homo sapiens, UniProt P49682, V275A); assay: as above; assay type: cell-based
T3 construct: expressed in transfected cells; host or cells: murine pre-B cell line L1.2, transient transfection
T3 sequence (P49682 1-368 V275A): T1 sequence (P49682 1-368 Y60A) with A60Y, V275A
Procedure: (§1) A previously described pcDNA3 plasmid containing human wild type (WT) CXCR3 cDNA with an HA epitope tag encoded at the N terminus (Meiser et al., [2008]) was used as a template for the generation of point mutants by PCR using the QuikChange II site-directed mutagenesis kit (Stratagene, Amsterdam, the Netherlands). All constructs were verified by DNA sequencing (Eurofins MWG Operon, Ebersberg, Germany) before use. L1.2 cells were transiently transfected by electroporation with 1 μg of vector DNA/10^6 cells at 330V, 975μF and incubated overnight in medium supplemented with 10 mM of sodium butyrate to enhance gene expression.
(§2) Assays of chemotactic responsiveness were carried out as previously described (Vaidehi et al., [2009]) using 96-well ChemoTx® plates with 5 μm pores (Neuroprobe, Gaithersburg, MD, USA). Migrating cells were detected by the use of CellTiter Glo® Dye (Promega, Southampton, UK) and resulting luminescence measured using a TopCount scintillation counter (PerkinElmer, Waltham, MA, USA). Basal migration of cells to buffer alone was subtracted from the resulting data, with individual results expressed as a percentage of the total cells applied to the filter. In all experiments, each data point was assayed in duplicate. In every experiment, cells transiently expressing WT CXCR3 were used as a positive control.

[4] = biological target: T4, CXCR3 Y271A (Homo sapiens, UniProt P49682, Y271A); assay: as above; assay type: cell-based
T4 construct: expressed in transfected cells; host or cells: murine pre-B cell line L1.2, transient transfection
T4 sequence (P49682 1-368 Y271A): T1 sequence (P49682 1-368 Y60A) with A60Y, Y271A
Procedure: as §1, §2

[5] = biological target: T5, CXCR3 Y205A (Homo sapiens, UniProt P49682, Y205A); assay: as above; assay type: cell-based
T5 construct: expressed in transfected cells; host or cells: murine pre-B cell line L1.2, transient transfection
T5 sequence (P49682 1-368 Y205A): T1 sequence (P49682 1-368 Y60A) with A60Y, Y205A
Procedure: as §1, §2

| reduction in IC50 value, ligand binding ([1]; Y60A relative to WT) | IC50 ([1]; Y60A, 0.1 nM 125I-CXCL11, read-out: IC50 ligand binding (mean ± SEM)) [µM] | IC50 [2] [µM] | % of WT chemotaxis to 30 nM CXCL11 (mean ± SEM) [3] [%] | % of WT chemotaxis to 30 nM CXCL11 (mean ± SEM) [4] [%] | % of WT chemotaxis to 30 nM CXCL11 (mean ± SEM) [5] [%] | Molecule |
| --- | --- | --- | --- | --- | --- | --- |
| twofold | 14 ± 7.07 | 1.34 |  |  |  | Cc1ccc(-c2ccc3c(c2)C=C(C(=O)Nc2ccc(C[N+](C)(C)C4CCOCC4)cc2)CCC3)cc1.[Cl-] [TAK-779, N,N-dimethyl-N-[4-[[[2-(4-methylphenyl)-6,7-dihydro-5H-benzocyclohepten-8-yl]-carbonyl]amino]benzyl] tetrahydro-2H-pyran-4-aminium chloride] |
|  |  |  | 52.9 ± 8.2 | 1.0 ± 0.6 | 35.5 ± 21.5 | CXCL11: recombinant human chemokine, CXCR3 agonist, purchased from PeproTech |
